# Test results published in patent publication US11479604B2, “Immunomodulatory peptides and methods for modulating the immune system in a subject” (Recepta Biopharma S.A., priority 2017, dated 2022).
# Positions of bridges follow the written chain, without caps; N, C: chain ends. No end group written: not given here.
# How the values were obtained:
# [1] = system: B16F10-Nex2 melanoma cells; assay: Syngeneic metastatic melanoma model, lung nodule count; assay type: in vivo, C57BL/6 mice; conditions: for antitumor activity (pulmonary nodules): alone, Rb9 300 μg 5 consecutive days, Imiquimod 50 μg 3 alternate days, CpG and Poly (I:C) two alternate days; for activity against metastatic melanoma of scramble peptides: 300 μg (10 mg/kg) i.p., alternate days, 5 doses, lungs after 14 days
# Procedure: Male C57BL/6 mice, 6 to 8-week-old were obtained from the Center for Development of Experimental Models (CEDEME), Federal University of Sao Paulo (UNIFESP). For the in vivo metastatic model, C57BL/6 mice received one intravenous (i.v.) injection of 2×10^5 viable B16-F10-Next melanoma cells in 100 μL. […] The control group received 100 μL PBS. Twenty-two days later, mice (minimum n=3 per group) had their lungs harvested, and the number of macroscopic melanotic nodules were counted. The Ethical Committee of Federal University of São Paulo, Project no. 1234, 2011, approved all experiments with animals, according to International guidelines. For the subcutaneous model, mice were injected with 5×10^5 tumor cells suspended in 100 μL of PBS in the right flank via the subcutaneous route. The peptide (300 μg) was solubilized in 10 μL of distilled H2O and 90 μL of PBS and injected per mouse via the intraperitoneal route. The administration of the peptide was performed in 5 alternate days initiating one day after tumor challenge. Tumor longitudinal diameter (D) and transverse diameter (d) were measured every 2 days until the tumor volume reached 3,000 mm3. Animals were sacrificed when the allowed volume was reached. Volume was calculated using the formula v=Dd^2×0.52. Tumor Cell Growth In Vitro and In Vivo Details of the in vitro tumor cell growth, cytotoxicity tests, determination of viable cells and in vivo protection experiments with B16F10 cells in a mouse metastatic model are described in Polonelli et al. (PLoS One. 3(6):e2371, 2008) and Dobroff et al. (Transl. Onc., 3: 204-217, 2010).
# 6 to 8 Week-old C57BL/6 mice (n=5, per group) were intravenously challenged with 1×10^5 of syngeneic B16F10-Nex2 viable cells in 0.1 mL of RPMI medium without FBS, and treated on the next day with intraperitoneal doses of 300 μg (10 mg/kg) each, of Scr1, Scr2, Scr3 or Scr4 peptide or with the control vehicle (PBS) in alternate days, total of 5 doses. After 14 days, mice were euthanized, and lungs were harvested and assessed for metastatic colonization. The number of metastatic lesions was quantified using a stereo microscope (Nikon, Tokyo). The percentage of the tumor area/total area was also quantified by ImageJ software.
# B16F10-Nex2 tumor cells (2×10^5) in RPMI (100 μl) were injected in both animal groups in the tail veins on day 0. Animals were sacrificed on day 22, or 10 days after the last administration of the peptide, and their lungs were examined for dark melanotic nodules.
# C57Bl6 mice were intravenously challenged with 4×10^5 syngeneic B16F10-Nex2 cells in 0.1 ml of RPMI without FBS.
# Mice were injected with 5×10^5 B16F10-Nex2 cells i.v. suspended in 100 μl PBS. […] Imiquimod at 50 μg/100 μl was injected i.p. in 3 alternate days; CpG ODN 1585, i.p., in two alternate days; and Poly (I:C), i.p., in two alternate days. After 15 days of tumor challenge, the animals were sacrificed, the lungs were removed and the pulmonary nodules were counted.
# [2] = system: T lymphocytes of lungs, spleen and lymph nodes; assay: Flow cytometry of Treg, T-CD4+ and T-CD8+ cells after prophylactic DC protocol; assay type: in vivo, mice; conditions: spleen and lymph nodes (except lungs), day 29, DCs stimulated by peptide
# Procedure: On day 14, mice were inoculated i.v. with B16F10.Nex2 melanoma tumor cells and on day 29, lungs, spleen and cervical and axillary lymph nodes were examined for CD3+ cells, and the proportion of T-CD4+ and T-CD8+ cells.
# The lungs were incubated with 2 mg/ml of collagenase for 40 min at 37° C. before maceration. The cell suspension was incubated with cold hemolytic buffer for 1 min and then centrifuged. The pellet was suspended with RPMI medium and counted. 1×10^6 Cells of each group were processed and stained using the Treg Detection Kit (Miltenyi Biotec, Cambridge, USA). Lymphocytes were characterized using anti-CD4 (FITC), anti-CD25 (PE) and anti-Foxp3 (APC). Samples were analyzed by flow cytometry using FACSCantoII (Becton Dickinson, San Jose, Calif., USA). Acquired data were analyzed using the FlowJo V10 (TreeStar Inc., Ashland, Oreg., USA). The percentages of Foxp3^+ in CD4^+CD25^+ lymphocytes are indicated.
# The cell suspension was incubated with cold hemolytic buffer for 1 min and then centrifuged. The pellet was suspended with RPMI medium and counted. 1×10^6 Cells of each group were stained with anti-CD3 (PE) and anti-CD4 (FITC) or anti-CD3 (PE) and anti-CD8 (FITC). All antibodies used were purchase from Miltenyi Biotec, Cambridge, USA. Samples were analyzed by flow cytometry using FACSCantoII (Becton Dickinson, San Jose, Calif., USA). Acquired data were analyzed using the FlowJo V10 (TreeStar Inc., Ashland, Oreg., USA). The percentages of CD4^+ or CD8^+ in CD3^+ lymphocytes are indicated.
# [3] = system: LPS stimulated DCs characterized by CD11c+ MHC-II+; assay: Co-stimulatory markers of LPS stimulated murine bone-marrow DCs; assay type: cell-based
# Text: Rb9 immunomodulation of murine bone-marrow dendritic cells (DCs) was also examined focusing on co-stimulatory markers.
# CD11c+ cells = assay: TGF-beta1 ELISA of CD11c+ cells from lymphoid organs of melanoma-bearing treated mice; assay type: in vivo, C57Bl6 mice; conditions: 300 μg/dose i.p., day 17
# Procedure: Animals were sacrificed on day 17 and their lungs, cervical and axillary lymph nodes and spleen were processed for examination. Lymph nodes and spleen were macerated separately, DMEM was added and passed through a cell strainer. CD11c+ cells were isolated using mouse CD11c+ beads and magnetic sorting. Cells were suspended in R10 medium and plated in […] at 10^6 cells/well. Cells were incubated for 24 h with or without tumor cell lysate (B16F10 stimulus). The supernatant was used in a TGF-beta1 ELISA test.
# [4] = system: B16F10-Nex2 melanoma cells; assay: Prophylactic adoptive transfer of peptide-stimulated dendritic cells, metastatic melanoma; assay type: in vivo, syngeneic mice; conditions: DCs incubated with 50 μg/ml peptide, with or without tumor cell lysate; s.c.; tumor challenge day 14, count day 29
# Procedure: DCs were obtained from the bone marrow of 6 to 8-week-old C57Bl6 mice. Briefly, femora and tibiae from mice were removed and stripped of muscles and tendons; both bone ends were cut, and bone marrow was extracted by placing the bone pieces into 1-ml tips, which in turn were inserted into 15-ml tubes and centrifuged for 10 minutes at 1500 rpm. Cells were resuspended in DMEM and cell clusters were dissociated by repeated pipetting. The total bone marrow cells were cultured in 100-mm treated tissue culture dish in 10 ml of R10 medium (DMEM medium supplemented with 2 mM glutamine, 10,000 U/ml penicillin, 10 mg/ml streptomycin, 50 μM 2-mercaptoethanol, 1 mM sodium pyruvate, MEM-nonessential aminoacids, MEM Vitamin solution, 10% heat-inactivated fetal bovine serum and GM-CSF (20 ng/ml) and IL-4 (40 ng/ml). Fresh medium (3 ml) with GM-CSF (200 ng/ml) and IL-4 (400 ng/ml) was added every 3 days. On day 7, adherent cells, that were harvested using PBS 2 mM EDTA, together with the non-adherent cells were pooled and used as the starting cell source for the experiments. BMDC Protocol 2
# DCs were inoculated s.c. in syngeneic mice. On day 14, mice were inoculated i.v. with melanoma tumor cells (5×10^5 cells) and on day 29, the lung melanotic nodules were counted.
# splenocytes = assay: Splenocyte cytokine production in melanoma-bearing treated mice (ELISA); assay type: in vivo; conditions: 300 μg i.p. 5 consecutive days
# Procedure: Mice were challenged with 5×10^5 B16F10-Nex2 cells via the i.v. route. […] Peptides at 300 μg solubilized in 10 μl distilled H2O and 90 μl of PBS were injected via i.p. route per animal, for 5 consecutive days initiating one day after tumor cell challenge. Seventeen days after tumor challenge mice were sacrificed and spleens were removed. Splenocytes after incubation in hemolysis buffer were suspended in R10 medium and plated in 6-well plates and 10^6 cells/well. Cells were incubated for 72 h with or without tumor cell lysate (from 10^5 B16F10-Nex2 cells) in triplicate. The supernatants were collected, and cytokines measured by ELISA (FIG. 11).
# [5] = system: colorectal CT26 carcinoma cells; assay: Subcutaneous syngeneic colorectal carcinoma model; assay type: in vivo, Balb/c mice
# [6] = system: CD11c+, MHC II+ bone marrow DCs; assay: Marker expression of bone marrow DCs with or without Poly I:C (flow cytometry); assay type: cell-based, C57Bl6 mice; conditions: 60 h
# Procedure: DCs were obtained from the bone marrow of 6 to 8-week-old C57Bl6 mice. Briefly, femora and tibiae from mice were removed and stripped of muscles and tendons; both bone ends were cut and bone marrow was flushed out with RPMI 1640 medium using a 21-gauge needle and syringe. Cell clusters were dissociated by passing through a cell strainer and 0.45 M ammonium chloride was added for red cell lysis. After washing the cell suspension twice in RPMI 1640, 10×10^6 bone marrow cells per well were cultured in non-treated tissue-culture 6-well plates with 4 ml of complete medium (RPMI 1640 supplemented with 2 mM glutamine, 10,000 U/mL penicillin, 10 mg/mL streptomycin, 50 μM 2-mercaptoethanol, 10% heat-inactivated fetal calf serum with GM-CSF (50 ng/ml). Half of the medium was removed on day 2 and new medium supplemented with GM-CSF (100 ng/ml) and warmed at 37° C. was added. The culture medium was entirely discarded on day 3 and replaced by fresh warmed medium with GM-CSF (50 ng/ml). On day 6, non-adherent cells in the culture supernatant and loosely adherent cells harvested by gentle washing with PBS were pooled and used as the starting cell source for the experiments.
# For murine cell analysis, these were stained in ice-cold PBS containing BSA (0.5%) and EDTA (2 mM) using appropriate antibody-fluorophore conjugates. Multiparameter analysis was performed on a BD FACSCanto II analyzer (BD Biosciences) and analyzed with FlowJo software (Tree Star). The following antibodies were used: anti-MHC Class II, anti-CD11c, anti-CD8a, anti-CD3e, anti-CD4, anti-CD86, anti-CD40, anti-CD80, Prior to acquisition, cells were resuspended in PBS/BSA 0.5%/EDTA (2 mM).
# DCs were centrifuged and washed once with MACS buffer. Cells (10^6) were resuspended in 45 μl of buffer and 5 μl of antibodies/fluorophore, CD11c APC, MHC II PE, CD80 FITC, CD86 VioBlue and CD40 PE. The samples were acquired in BD FACS Canto II using the FacsDiva software. The data were analyzed by using the FlowJo software.
# [7] = 100 μg/ml peptide + 12.5 μg/ml Poly I:C
molecule,measurement,setting,value
"CC(C)Cn1cnc2c(N)nc3ccccc3c21 [Imiquimod, reference compound]",antitumor activity (pulmonary nodules),"[1]; i.p., 15 days after challenge",Antitumor activities of Rb9 and Imiquimod were the same
Poly I:C [reference compound],antitumor activity (pulmonary nodules),"[1]; i.p., 15 days after challenge",strongly active
same,antitumor activity of Poly I:C combined with Rb9,"[1]; i.p., 15 days after challenge",strongly active
"[AARGETARATFAYWGQG], NH2 [Rb10A1]",proportion of T-CD8+ to T-CD4+ cells,[2],T-CD8+ cells greatly predominated over T-CD4+ effector cells
same,CD40 expression,[3],regulated CD40 expression
same,expression of CD80 and CD86,[3]; Rb9 mainly at 50 μg/ml,significantly stimulated
same,TGF-beta in tumor-lysate stimulated CD11c+ cells from the spleen,CD11c+ cells,markedly inhibited
same,TGF-beta secreted by lymph node CD11c+ cells,CD11c+ cells; vs vehicle (PBS) control cells stimulated by melanoma lysate,fully inhibited
same,protective effect of peptide-stimulated DCs (lung melanotic nodules),[4],also protective against melanoma in the metastatic model but less effectively than Rb9
same,cytokine production in splenocytes (generally),splenocytes,downregulated
same,IL-12 production in splenocytes,splenocytes; no stimulus necessary,comparable in the three groups
"[CAEATYWRRGGQAAGFTC], NH2 (C-C) (CAEATYWRRGGQAAGFTC-NH2; disulfide 1-18 (inferred)) [Scr1, cyclic scramble peptide of Rb9]",activity against metastatic melanoma of scramble peptides,[1],activity similar to Rb9
"[CARGETARATFAYWGQG], NH2 (CARGETARATFAYWGQG-NH2) [Rb10, linear peptide lacking terminal cysteine]",subcutaneous tumor growth,"[5]; CT26 cells of high virulence (Argentina cell line), 5 alternate days",delayed
same,survival time,"[5]; CT26 cells of high virulence, H-2^d syngeneic animals",prolonging the survival time
"[CETWRGAATRGAFQAYGC], NH2 (C-C) (CETWRGAATRGAFQAYGC-NH2; disulfide 1-18 (inferred)) [Scr3, cyclic scramble peptide of Rb9]",activity against metastatic melanoma of scramble peptides,[1],good negative control
"[RATFAYWG], NH2 [Rb9-MID]",CD40 expression over Poly I:C,[6]; [7],stimulated CD40 over Poly I:C much like Rb9
same,expression of MHC II over Poly I:C and Rb9,[6]; [7],significantly increased
same,expression of CD80,"[6]; 100 μg/ml peptide, with or without Poly I:C",similar
